Each structure is given as a SMILES string. ± gives the expanded uncertainty stated by the source.

Consider `CCCCCCCCCCOc1cc(C=NNC(=O)c2ccc(N=Cc3cc(OCCCCCCCCCC)c(OCCCCCCCCCC)c(OCCCCCCCCCC)c3)cc2)cc(OCCCCCCCCCC)c1OCCCCCCCCCC`, for which the Triple point temperature (Liquid crystal of unknown type) was 385.85 ± 2 K.
Consider `CCCCCOc1ccc(-c2ccc(C#N)cc2)cc1` [4'-pentoxy-4-cyanobiphenyl], for which the Triple point temperature (Nematic liquid crystal) is listed as 339.75 ± 2 K.

(Values after the NIST ThermoML archive (doi:10.1016/j.tca.2015.08.007).)
